According to patent publication US20060293223A1 (Eli Lilly and Company Patent Division, priority 2003, published 2006):
Positions of bridges follow the written chain, without caps; N, C: chain ends. Non-standard residues stand in square brackets, D forms with d. No end group written: not given here. hCys = N[C@@H](CCS)C(=O)O

Each substance was assayed on MC1/MC4. Conditions: ratio MC1/MC4.
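Further: ratio of EC50 values obtained at MC1 versus MC4 receptors, with MC1 potency measured by luciferase reporter activity in stably transfected cells expressing human MC1.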

Substance	MC1/MC4 selectivity
Ac-YSCEH[dF]RWC-NH2 (disulfide 3-9) [Compound 129]	22.16
Ac-Tyr-D-Arg-cyclo[Cys-Glu-His-D-Phe-Arg-Trp-Cys]-NH2 [Compound 79]	21.79
Arg-cyclo[hCys-(1-Me-His)-D-Phe-Arg-Trp-Cys]-NH2 [Compound 156]	158.41
Ac-cyclo[Cys-Glu-His-(4-F-D-Phe)-Arg-Trp-Cys]-NH2 [Compound 31]	57.02
[dR][hCys]H[dF]RWC-NH2 (disulfide 2-7) [Compound 154]	36.00
Ac-Tyr-Arg-cyclo[D-Cys-Glu-His-D-Phe-Arg-Trp-Cys]-NH2 [Compound 80]	8.24
Ac-cyclo[hCys-His-(4-Cl-D-Phe)-Arg-Trp-penicillamine]-NH2 [Compound 169]	1804.00
Ac-YRCGH[dF]RWC-NH2 (disulfide 3-9) [Compound 12]	6.72
YR[hCys]H[dF]RWC-OH (disulfide 3-8) [Compound 163]	19.46
Ac-Tyr-hArg-cyclo[Cys-Glu-His-D-Phe-Arg-Trp-Cys]-NH2 [Compound 126]	22.64
YRCGH[dF]RWC-NH2 (disulfide 3-9) [Compound 11]	11.00
Ac-YRCSH[dF]RWC-NH2 (disulfide 3-9) [Compound 21]	10.27
Ac-diaminopropionyl-cyclo[Cys-Glu-His-D-Phe-Arg-Trp-Cys]-NH2 [Compound 43]	11.00
5-guanidinovaleryl-cyclo[Cys-Glu-His-D-Phe-Arg-Trp-Cys]-NH2 [Compound 42]	44.63
Ac-YVCEH[dF]RWC-NH2 (disulfide 3-9) [Compound 130]	26.88
Ac-Arg-cyclo[Cys-His-(4-F-D-Phe)-Arg-Trp-hCys]-NH2 [Compound 190]	367.10
N-succinyl-Tyr-Arg-cyclo[Cys-Glu-His-D-Phe-Arg-Trp-Cys]-OH [Compound 131]	7.00
N-cyclopentanecarbonyl-cyclo[hCys-His-D-Phe-Arg-Trp-Cys]-NH2 [Compound 143]	19.27
Ac-Arg-cyclo[Cys-Glu-(1-Me-His)-D-Phe-Arg-Trp-Cys]-NH2 [Compound 51]	76.75
Ac-Arg-cyclo[Cys-Glu-(1-Me-His)-(4-Cl-D-Phe)-Arg-Trp-Cys]-NH2 [Compound 87]	316.25
N-cyclohexanecarbonyl-cyclo[hCys-His-D-Phe-Arg-Trp-penicillamine]-NH2 [Compound 172]	26.45
N-glutaryl-Tyr-Arg-cyclo[Cys-Glu-His-D-Phe-Arg-Trp-Cys]-OH [Compound 76]	6.00
N-(4-phenylsulfonamido-4-oxo-butyryl)-cyclo[hCys-His-D-Phe-Arg-Trp-Cys]-NH2 [Compound 152]	7.73
Ac-cyclo[Cys-Glu-His-(4-Br-D-Phe)-Arg-Trp-Cys]-NH2 [Compound 33]	79.54
Ac-Tyr-Arg-cyclo[Cys-Glu-His-D-Phe-Arg-Trp-Cys]-OH [Compound 73]	12.77
Ac-Tyr-Arg-cyclo[Cys-Glu-(1-benzyl-D-His)-D-Phe-Arg-Trp-Cys]-NH2 [Compound 100]	1.67
Ac-YRCEH[dF]RWCRF-NH2 (disulfide 3-9) [Compound 123]	2.42
Ac-Tyr-Arg-cyclo[Cys-Glu-(1-Me-D-His)-D-Phe-Arg-Trp-Cys]-NH2 [Compound 82]	1.66
Ac-cyclo[hCys-His-(β-cyclohexyl-D-Ala)-Arg-Trp-Cys]-NH2 [Compound 167]	3.36
Ac-Tyr-Arg-cyclo[Cys-Glu-(β-(1,2,4-triazol-3-yl))-Ala)-D-Phe-Arg-Trp-Cys]-NH2 [Compound 106]	23.95
